One assay deals with T1, PDCD4 (Homo sapiens, UniProt Q53EL6).
T1 construct: endogenous in cells; host or cells: HL-60 (ATCC CCL-240)
T1 sequence (Q53EL6 1-469): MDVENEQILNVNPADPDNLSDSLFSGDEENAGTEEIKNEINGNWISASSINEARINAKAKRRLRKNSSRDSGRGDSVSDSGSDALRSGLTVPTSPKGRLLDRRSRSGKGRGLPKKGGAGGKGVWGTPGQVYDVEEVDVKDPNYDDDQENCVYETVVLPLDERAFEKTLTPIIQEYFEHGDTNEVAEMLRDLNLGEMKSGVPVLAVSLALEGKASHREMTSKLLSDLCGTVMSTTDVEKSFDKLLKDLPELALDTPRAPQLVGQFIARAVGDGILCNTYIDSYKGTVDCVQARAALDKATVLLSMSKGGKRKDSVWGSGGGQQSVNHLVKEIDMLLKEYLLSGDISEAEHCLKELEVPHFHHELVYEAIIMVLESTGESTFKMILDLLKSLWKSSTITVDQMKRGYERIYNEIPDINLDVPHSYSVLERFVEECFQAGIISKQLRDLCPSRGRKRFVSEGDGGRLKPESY
The assay is described as follows: TPP-CCR in living HL-60 cells. The format is cell-based.

Another assay has as its target T2, POR (Homo sapiens, UniProt P16435).
T2 construct: endogenous in cells; host or cells: HL-60 (ATCC CCL-240)
T2 sequence (P16435 1-677): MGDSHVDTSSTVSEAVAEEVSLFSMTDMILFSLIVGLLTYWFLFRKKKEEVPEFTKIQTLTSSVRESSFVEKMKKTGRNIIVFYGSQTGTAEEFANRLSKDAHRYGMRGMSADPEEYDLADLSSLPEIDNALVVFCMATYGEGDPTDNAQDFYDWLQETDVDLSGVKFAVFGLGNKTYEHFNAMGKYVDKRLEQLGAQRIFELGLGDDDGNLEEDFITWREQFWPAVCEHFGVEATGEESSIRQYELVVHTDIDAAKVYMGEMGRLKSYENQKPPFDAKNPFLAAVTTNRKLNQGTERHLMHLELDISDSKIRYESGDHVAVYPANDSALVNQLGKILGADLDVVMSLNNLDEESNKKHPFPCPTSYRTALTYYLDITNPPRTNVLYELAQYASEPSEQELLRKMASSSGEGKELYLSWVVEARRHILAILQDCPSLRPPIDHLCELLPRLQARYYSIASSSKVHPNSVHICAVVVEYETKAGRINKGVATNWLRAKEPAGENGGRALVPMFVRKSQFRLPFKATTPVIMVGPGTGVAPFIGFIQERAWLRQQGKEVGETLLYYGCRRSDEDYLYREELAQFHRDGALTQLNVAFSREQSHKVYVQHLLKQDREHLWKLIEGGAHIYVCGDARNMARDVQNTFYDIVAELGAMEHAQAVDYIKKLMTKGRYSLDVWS
The assay is described as follows: TPP-CCR in living HL-60 cells. Type of assay: cell-based.

The mark [1] stands for this setting: living HL-60 cells, […] °C, TMT-MS.

The structures appear in SMILES notation.

Take `Cc1cnc(Nc2ccc(F)cc2Cl)nc1-c1c[nH]c(C(=O)N[C@H](CO)c2cccc(Cl)c2)c1` [ERK 11e]: the Hill slope (as a rule, a measure of the steepness of the concentration-response curve) on PDCD4 (TPP-CCR, living cells, PDCD4) is 0.69; at POR (TPP-CCR, living cells, POR) it was 0.73. The “Hill slope (PDCD4)” value at PDCD4 (setting [1]) is given as 0.69. Further, the EC50 at PDCD4 (living HL-60 cells, […] °C, TMT-MS, read-out: pEC50 (PDCD4) (converted)) is 1050 nM; at POR (setting [1]), 1290 nM. Also, the “Hill slope (POR)” value on POR (setting [1]) was 0.73.

(Values after publication PMC9147192, “Small Molecule Arranged Thermal Proximity Coaggregation (smarTPCA)—A Novel Approach to Characterize Protein–Protein Interactions in Living Cells by Similar Isothermal Dose–Responses” (International Journal of Molecular Sciences, 2022).)
